Measured values from patent US20080206316A1, “Chromium-Fatty Acid Compounds and Methods of Making and Using Thereof” (priority 2005, published 2008).

System: diabetic mice
Test: Fasting blood glucose in diabetic mice fed test diets
Assay type: in vivo, Mice (C57BL/6J)
Experimental: Mice (C57BL/6J) weighing 20-grams were fed a high fat, high sucrose diet with no added chromium (No. D01030101, Research Diets Inc., New Brunswick, N.J.). After two weeks, they were injected intraperitoneally (i.p.) with streptozotocin (in phosphate-buffered saline, PBS) at a dose of 35 mg/kg body weight on 3 consecutive days. The combination of the high fat/high sucrose diet and streptozotocin treatment produced an impaired glucose tolerance evident 7 days following the initial streptozotocin injection (FIG. 5). Glucose tolerance was measured in mice fasted overnight and then injected i.p. with 1 g glucose/kg body weight (0.25 mL of a 10% glucose solution in PBS). Blood glucose was measured using a glucometer (OneTouch Ultra, LifeScan Inc., Milpitas, Calif.) on a drop of blood obtained from the saphenous vein just prior to (0 time) and at 10, 30, 60, 90 and 120 minutes following injection.
Animals were subsequently assigned to one of four different diet treatments, six animals per group. The diets were modified from the above high fat, high sucrose diet (Table 6). Each diet contained 1.5% fish oil concentrate (40:20 EPA/DHA ethyl ester, Ocean Nutrition Canada, Ltd., Mulgrave, NS). […] The animals were fed these diets for 4 weeks, after which time, fasting blood glucose and glucose tolerance was evaluated. […]

`O=C([O-])c1ccccn1.O=C([O-])c1ccccn1.O=C([O-])c1ccccn1.[Cr+3]` [Cr picolinate] was tested, and the “Fast blood glucose levels” value (diabetic mice (high fat/high sucrose diet + streptozotocin), diet with 1000 μg elemental Cr/kg diet for 4 weeks, fasted) was 8.17 ± 1.8 mM and the “fasting blood glucose compared to the level in the control group” value (diabetic mice, dietary Cr for 4 weeks) was “reduction in fasting blood glucose”.
